Patent publication US11840686B2, “Modulation of prekallikrein (PKK) expression” (Ionis Pharmaceuticals, Inc., priority 2013, dated 2023)
Strand notation (5' to 3'): a small letter for the sugar, then the base; units joined by * are phosphorothioate-linked, units joined directly phosphodiester-linked; [ ] holds rarer units or linkages, { } end groups; capitals alone tell only the bases. e = 2'-O-(2-methoxyethyl) (MOE); k = constrained ethyl (cEt); [5mC] = 5-methylcytosine; d = 2'-deoxy (DNA)

What follows are substances tested on human PKK mRNA (assay: Antisense inhibition of human PKK mRNA in HepaRG cells, 1,000 nM, MOE/deoxy/cEt oligonucleotides (Example 3)). Settings: HepaRG cells, 1,000 nM antisense oligonucleotide, Table 29.
Type: cell-based
Outline: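 Readout is percent PKK mRNA reduction against untreated controls, by real-time PCR (RTS3454) adjusted for total RNA via RIBOGREEN. Oligonucleotides, phosphorothioate gapmers of 16 nucleosides with cEt, MOE and deoxy sugars, were delivered at 1,000 nM by electroporation to 20,000 HepaRG cells/well for roughly 24 h.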

In order of falling “% inhibition” value:
1. 548567 (antisense eA*eG*kA*dT*d[5mC]*d[5mC]*dG*dG*dA*dA*dT*dA*dA*k[5mC]*k[5mC]*eA) [compound 548567]  67%
2. 548552 (antisense eT*eG*kG*dA*dG*dG*dA*dG*dT*dA*dG*dG*dG*kA*kA*eT) [compound 548552]  10%

Same assay, conditions: HepaRG cells, electroporation with 1,000 nM antisense oligonucleotide, approx. 24 hours, PKK mRNA by RT-PCR (RTS3454), relative to untreated control cells; Table 25 experiment

In order of falling “% inhibition” value:
1. 548182 (eA*eG*kT*d[5mC]*dA*dT*dG*dG*dA*dG*dA*dT*d[5mC]*kT*k[5mC]*eA; antisense) [compound 548182]  55%
2. 548200 (e[5mC]*eT*kA*dA*dT*dG*dT*dG*dG*d[5mC]*dA*d[5mC]*dT*kG*k[5mC]*eA; antisense) [compound 548200]  19%
3. 548158 (eG*e[5mC]*kA*dT*dT*dG*dT*d[5mC]*dA*dG*d[5mC]*d[5mC]*d[5mC]*k[5mC]*kT*eG; antisense) [compound 548158]  18%
4. 548205 (eT*e[5mC]*kA*dA*dT*d[5mC]*dT*dG*dA*d[5mC]*dT*dA*dG*kT*kG*eA; antisense) [compound 548205]  14%
5. 548169 (eG*eT*kT*dG*d[5mC]*dG*dA*d[5mC]*d[5mC]*dT*d[5mC]*dG*d[5mC]*kA*kT*eT; antisense) [compound 548169]  7%
6. 548172 (eT*e[5mC]*kA*dG*dT*dT*dG*d[5mC]*dG*dA*d[5mC]*d[5mC]*dT*k[5mC]*kG*e[5mC]; antisense) [compound 548172]  0%

Same assay, conditions: HepaRG cells, electroporation with 1,000 nM antisense oligonucleotide, approx. 24 hours, PKK mRNA by RT-PCR (RTS3454), relative to untreated control cells; Table 26 experiment

In order of rising “% inhibition” value:
1. 548231 (eA*eA*kT*dA*d[5mC]*dT*d[5mC]*dA*dT*dT*dG*dT*dT*kG*kT*eG; antisense) [compound 548231]  11%
2. 548276 (antisense e[5mC]*eA*kG*dA*dG*dT*dG*dT*d[5mC]*dA*dT*d[5mC]*dT*kG*k[5mC]*eG) [compound 548276]  49%

Same assay, conditions: HepaRG cells, electroporation with 1,000 nM antisense oligonucleotide, approximately 24 hours, primer probe set RTS3454, relative to untreated control cells; experiment of Table 23

In order of rising “% inhibition” value:
1. 547952 (e[5mC]*eA*kG*dA*dT*dA*dT*dG*dG*dT*dG*dT*dT*kT*kT*e[5mC]; antisense) [compound 547952]  46%
2. 547976 (antisense e[5mC]*e[5mC]*kA*dA*dA*dG*dT*d[5mC]*dA*dA*d[5mC]*dT*d[5mC]*k[5mC]*k[5mC]*eG) [compound 547976]  49%
3. 547928 (eG*eA*kT*dG*dG*dT*d[5mC]*d[5mC]*dG*dA*d[5mC]*dA*d[5mC]*kA*k[5mC]*eA; antisense) [compound 547928]  70%

Same assay, conditions: HepaRG cells, electroporation with 1,000 nM antisense oligonucleotide, approximately 24 hours, primer probe set RTS3454, relative to untreated control cells; experiment of Table 24

In order of falling “% inhibition” value:
1. 548023 (eG*e[5mC]*kT*dT*d[5mC]*dA*d[5mC]*d[5mC]*dT*dG*d[5mC]*dA*dG*kG*k[5mC]*eT; antisense) [compound 548023]  58%
2. 548013 (eG*eT*k[5mC]*d[5mC]*d[5mC]*d[5mC]*dA*dG*dT*dG*dT*dT*dA*k[5mC]*kA*e[5mC]; antisense) [compound 548013]  37%

Same assay, conditions: PKK mRNA, HepaRG cells, 1,000 nM antisense oligonucleotide; Table 31

In order of rising “% inhibition” value:
1. 548643 (antisense e[5mC]*e[5mC]*kT*dA*d[5mC]*d[5mC]*dT*dA*dA*dT*dT*d[5mC]*d[5mC]*kT*k[5mC]*e[5mC]) [compound 548643]  0%
2. 548688 (DNA eT*eA*kG*dA*dG*dG*dG*dA*dT*d[5mC]*d[5mC]*d[5mC]*dA*kG*kG*eA) [compound 548688]  0%
3. 548665 (antisense eG*e[5mC]*kT*d[5mC]*d[5mC]*d[5mC]*dG*dG*d[5mC]*d[5mC]*dA*dT*dT*kA*kG*e[5mC]) [compound 548665]  8%
4. 548683 (antisense eA*eG*kT*dA*dT*d[5mC]*dT*d[5mC]*dA*dT*dG*dT*dG*k[5mC]*k[5mC]*eT) [compound 548683]  46%

Same assay, conditions: Table 19; HepaRG cells, electroporation with 1,000 nM antisense oligonucleotide, approximately 24 hours; PKK mRNA by RT-PCR (RTS3454), relative to untreated control cells

In order of falling “% inhibition” value:
1. 548131 (eA*eA*kT*dT*dT*dG*dA*d[5mC]*dT*dT*dG*dA*dA*k[5mC]*kT*e[5mC]; antisense) [compound 548131]  45%
2. 548149 (eG*eA*k[5mC]*dA*dT*dT*dG*dT*d[5mC]*d[5mC]*dT*d[5mC]*dA*kG*k[5mC]*eA; antisense) [compound 548149]  39%
3. 548132 (eG*eA*kA*dT*dT*dT*dG*dA*d[5mC]*dT*dT*dG*dA*kA*k[5mC]*eT; antisense) [compound 548132]  0%

Same assay, conditions: Table 20; HepaRG cells, electroporation with 1,000 nM antisense oligonucleotide, approximately 24 hours; PKK mRNA by RT-PCR (RTS3454), relative to untreated control cells

In order of rising “% inhibition” value:
1. 547865 (antisense eA*eA*kA*dA*dT*dT*dG*dA*d[5mC]*dT*d[5mC]*d[5mC]*dT*k[5mC]*kT*e[5mC]) [compound 547865]  3%
2. 547892 (e[5mC]*eA*kA*dT*dT*dG*dT*dT*d[5mC]*d[5mC]*dG*dG*dT*kA*k[5mC]*eT; antisense) [compound 547892]  29%

Same assay, conditions: Table 21 experiment; HepaRG cells, electroporation with 1,000 nM antisense oligonucleotide, approx. 24 hours; PKK mRNA by RT-PCR (RTS3454), relative to untreated control cells

In order of falling “% inhibition” value:
1. 547823 (eA*eG*k[5mC]*dA*dA*d[5mC]*d[5mC]*dA*dA*dA*d[5mC]*d[5mC]*dT*kT*kT*eT; antisense) [compound 547823]  51%
2. 547831 (e[5mC]*eT*kG*d[5mC]*dA*d[5mC]*d[5mC]*dT*dG*dT*dT*d[5mC]*dG*kA*kT*eG; antisense) [compound 547831]  49%
3. 547788 (antisense eT*eA*kA*dG*dT*dT*dG*d[5mC]*dT*dT*dG*d[5mC]*dT*kT*kG*eA) [compound 547788]  49%
4. 547783 (antisense e[5mC]*eA*k[5mC]*dA*dA*dT*dT*dG*d[5mC]*dT*dT*d[5mC]*dT*kT*kG*eG) [compound 547783]  48%
5. 547793 (antisense eA*eT*k[5mC]*d[5mC]*dA*d[5mC]*dA*dG*dG*dA*dA*dA*d[5mC]*kT*kG*eT) [compound 547793]  16%
6. 547815 (eA*eA*k[5mC]*dT*dT*dG*d[5mC]*dT*dG*dG*dA*dA*dG*kA*kA*eA; antisense) [compound 547815]  3%

Same assay, conditions: Table 22 experiment; HepaRG cells, electroporation with 1,000 nM antisense oligonucleotide, approx. 24 hours; PKK mRNA by RT-PCR (RTS3454), relative to untreated control cells

In order of rising “% inhibition” value:
1. 547892 (e[5mC]*eA*kA*dT*dT*dG*dT*dT*d[5mC]*d[5mC]*dG*dG*dT*kA*k[5mC]*eT; antisense) [compound 547892]  28%
2. 547865 (antisense eA*eA*kA*dA*dT*dT*dG*dA*d[5mC]*dT*d[5mC]*d[5mC]*dT*k[5mC]*kT*e[5mC]) [compound 547865]  61%

Same assay, conditions: Table 27; HepaRG cells, 1,000 nM antisense oligonucleotide; human PKK mRNA

In order of falling “% inhibition” value:
1. 548379 (eA*eT*k[5mC]*dG*dA*dA*d[5mC]*dT*d[5mC]*dT*dG*d[5mC]*dT*kT*kG*eA; antisense) [compound 548379]  44%
2. 548314 (eA*e[5mC]*kA*dA*d[5mC]*d[5mC]*dT*dG*dT*d[5mC]*d[5mC]*dA*dT*kT*k[5mC]*e[5mC]; antisense) [compound 548314]  43%
3. 548354 (antisense eA*eT*kG*dT*d[5mC]*d[5mC]*d[5mC]*d[5mC]*dA*dG*dT*dG*dG*kA*kA*eG) [compound 548354]  41%
4. 548315 (eG*eT*kT*dG*dT*d[5mC]*dA*dA*d[5mC]*dT*dG*dG*dG*kA*k[5mC]*e[5mC]; antisense) [compound 548315]  14%
5. 548308 (eA*eA*kT*dG*dG*d[5mC]*dA*dG*dG*dT*d[5mC]*d[5mC]*dT*kG*kG*e[5mC]; antisense) [compound 548308]  9%

Same assay, conditions: Table 28; HepaRG cells, 1,000 nM antisense oligonucleotide; human PKK mRNA

In order of rising “% inhibition” value:
1. 548489 (antisense eT*eT*k[5mC]*d[5mC]*d[5mC]*d[5mC]*dA*dG*dA*dG*dG*dT*dG*kA*kT*eA) [compound 548489]  16%
2. 548459 (e[5mC]*eA*kA*d[5mC]*dT*dA*dT*dA*dA*d[5mC]*dA*dG*dT*kA*kT*e[5mC]; antisense) [compound 548459]  26%
3. 548522 (antisense eA*eG*kG*dT*dA*dT*dT*dG*dA*d[5mC]*d[5mC]*dG*d[5mC]*k[5mC]*kA*eG) [compound 548522]  55%
4. 548529 (antisense eG*e[5mC]*kG*dA*dT*dT*d[5mC]*d[5mC]*dT*dT*dG*d[5mC]*d[5mC]*kT*k[5mC]*eT) [compound 548529]  56%

Same assay, conditions: Table 30; human PKK mRNA, HepaRG cells, 1,000 nM antisense oligonucleotide

For “548452 (eT*eA*kT*dA*dT*d[5mC]*dA*d[5mC]*dT*dG*dT*dA*d[5mC]*k[5mC]*kT*eA; antisense) [compound 548452]”, the “% inhibition” value was 65%.
